# Patent US20200038412A1, “METHODS OF TREATING ALZHEIMER'S DISEASE USING AMINOSTEROL COMPOSITIONS” (Enterin, Inc., priority 2018, published 2020)
# Assays:
# [1] = test system: patients with PD and constipation; assay: Phase 2 trial Stage 2: bowel function under daily oral dosing (escalation, fixed dose, wash-out); assay type: in vivo, human
# Experimental: Following successful screening, all subjects underwent a 14-day run-in period where the degree of constipation was assessed through a validated daily log (Zinsmeister et al. 2013) establishing baseline CSBMs/week. Subjects with an average of <3 CSBMs/week proceeded to dosing.
# In Stage 2, 34 patients were evaluated.
# The primary efficacy outcome variable was whether or not a subject was a “success” or “failure”. This is an endpoint based on subject diary entries for the “fixed dose” period prior to the endpoint assessment defined as average complete stool frequency increase by 1 or more over baseline, or 3 or more complete spontaneous stools/week. The subject was deemed a “success” if s/he met one or more of the criteria listed above, otherwise the subject was deemed a “failure”. The primary analysis was based on all subjects with a baseline assessment and an assessment at the end of the “fixed-dose” period and was a comparison of the proportion of successes with 0.10 (the null hypothesis corresponding to no treatment effect).
# [2] = test system: patients with PD and constipation; assay: Phase 2 trial, all dosed patients (Stage 1 and 2): adverse events; assay type: in vivo, human
# Experimental: Fifty patients were enrolled and 44 were dosed. In Stage 1, 10 patients were dosed, 1 (10%) withdrew prior to completion and 9 (90%) completed dosing. In stage 2, 6 (15%) patients had ≥3 CSBM/week at the end of the run-in period and were excluded, 34 patients were dosed and bowel response was assessable in 31 (91%). Two patients (5.8%) were terminated prior to completion because of recurrent dizziness, and 3 others withdrew during dosing (8.8%): 2 because of diarrhea and 1 because of holiday. Fifteen patients were randomized.
# Most AEs were confined to the GI tract (88% in Stage 1 and 63% in Stage 2). The most common AE was nausea which occurred in 4/10 (40%) patients in Stage 1 and in 18/34 (52.9%) in Stage 2 (Table 2). Diarrhea occurred in 4/10 (40%) patients in Stage 1 and 15/34 (44%) in Stage 2. One patient withdrew because of recurrent diarrhea. Other GI related AEs included abdominal pain 11/44 […], flatulence 3/44 (6.8%), vomiting 3/44 (6.8%), worsening of acid reflux 2/44 (4.5%), and worsening of hemorrhoids 1/44 (2.2%). […] The only other noteworthy AE was dizziness 8/44 (18%). Dizziness was graded as moderate in one patient who was receiving an alpha-adrenergic blocking agent (Terazosin). This patient was withdrawn from the study and recovered spontaneously.
# [3] = Pharmacokinetics of orally administered squalamine (ENT-01) in Stage 1; assay type: in vivo, human
# Experimental: PK data were collected on the 10 patients enrolled in Stage 1 and 10 patients enrolled in Stage 2 to determine the extent of systemic absorption. In Stage 1, PK data were obtained at each visit, pre-medication, at 1, 2, 4, 8 and 24 hours (Table 10). In Stage 2, PK was measured on days 1 and 6 of the randomization period pre-medication, at 1, 2, 4 and 8 hours (Table 11).
# The mean Cmax, Tmax and T1/2 and AUC of the squalamine ion following squalamine (ENT-01) oral dosing for Stage 1 patients. The PK analyses are only approximate, as the lower limit of the validated concentration range was 10 ng/ml; most of the measured concentrations fell below that value. The mean Cmax, Tmax and T1/2 and AUC of the squalamine ion following squalamine (ENT-01) oral dosing for Stage 2 patients. The PK analyses are only approximate, as the lower limit of the validated concentration range was 0.5 ng/ml.
# Solubility in water = assay type: physicochemical
# αS = αS (Homo sapiens, UniProt P37840); conditions: in vitro (Perni et al. 2017); cited from earlier work
# C. elegans model of PD = conditions: in vivo, C. elegans (Perni et al. 2017); cited from earlier work
smiles,measurement,setting,value
"CC(C)[C@@H](CC[C@@H](C)[C@H]1CC[C@H]2[C@@H]3[C@H](O)C[C@H]4C[C@@H](NCCCNCCCCN)CC[C@]4(C)[C@H]3CC[C@]12C)OS(=O)(=O)O (single isomer, unassigned) [squalamine (ENT-01), squalamine]",improvement of ease of passage,[1]; 3.2 to 3.7,16%
same,response rate (CSBM within 24 hours of dosing on at least 2 of 3 days),"[1]; Stage 2, daily oral dosing, 75 mg",26%
same,"CSBM, weekly average","[1]; Stage 2, fixed dose, mean (SD), n = 34, baseline 1.2 (0.90)",3.8 (2.4) CSBM/week
same,"Suppository use / rescue medication, weekly average","[1]; Stage 2, fixed dose, mean (SD), n = 34, baseline 1.8 (1.92)",0.3 (0.67) /week
same,Consistency (Bristol stool scale 1-7),"[1]; Stage 2, fixed dose, mean (SD), n = 34, baseline 2.7 (1.20), listed as aminosterol",4.1
same,Ease of passage (Ease of evacuation scale 1-7),"[1]; Stage 2, fixed dose, mean (SD), n = 34, baseline 3.2 (0.73), listed as aminosterol",3.7
same,PAQ-SYM,"[1]; Stage 2, wash-out, mean (SD), baseline 1.3 (0.45)",1.1 (0.60)
same,PAQ-QOL,"[1]; Stage 2, wash-out, mean (SD), baseline 1.4 (0.49)",1.2 (0.63)
same,Rescue meds,"[1]; Stage 2, wash-out, mean (SD), baseline 1.8 (1.92)",1.0 (1.40)
same,Consistency,"[1]; Stage 2, wash-out, mean (SD), baseline 2.7 (1.20)",2.8 (1.39)
same,Ease,"[1]; Stage 2, wash-out, mean (SD), baseline 3.2 (0.73)",3.3 (0.81)
same,improvement of average CSBM/week,[1]; baseline 1.2 to fixed dose 3.8,216%
same,decrease of use of rescue medication,[1]; baseline 1.8/week to fixed dose 0.3,83%
same,improvement of SBM,[1]; baseline 2.6 to fixed dose 4.5,73%
same,CSBM frequency in the randomized cohort,"[1]; group later randomized to placebo (n = 9), fixed dose period (still on drug), baseline 1.6",3.3 CSBM/week
same,CSBM frequency in the randomized cohort,"[1]; group randomized to treatment (n = 6), fixed dose period, baseline 0.8",3.2 CSBM/week
same,CSBM frequency in the randomized cohort,"[1]; group randomized to treatment (n = 6), randomized period (4-6 days continued treatment), baseline 0.8",2.4 CSBM/week
same,CSBM frequency in the randomized cohort,"[1]; group randomized to treatment (n = 6), washout, baseline 0.8",0.9 CSBM/week
same,improvement of consistency (Bristol stool scale),[1]; mean 2.7 to 4.1,52%
same,mean dose required for a bowel response (prokinetic dose),[1]; patients with baseline ≥1 CSBM/week,120 mg
same,patients responding,[1]; within effective dose range 75 mg to 250 mg,85%
same,patients with worsening of hemorrhoids,[2]; 1/44 dosed patients,2.2%
same,patients with worsening of acid reflux,[2]; 2/44 dosed patients,4.5%
same,patients with flatulence,[2]; 3/44 dosed patients,6.8%
same,patients with vomiting,[2]; 3/44 dosed patients,6.8%
same,patients with dizziness,[2]; 8/44 dosed patients,18%
same,AUC0-8 hr,"[3]; Stage 1, oral 50 mg, 10 patients",18.5 ng·h/mL
same,AUC0-8 hr,"[3]; Stage 1, oral 100 mg, 9 patients",29.6 ng·h/mL
same,AUC0-8 hr,"[3]; Stage 1, oral 200 mg, 6 patients",78.3 ng·h/mL
same,T1/2,"[3]; Stage 1, oral 200 mg, n = 5",9.0 (5) hours
same,approximate oral bioavailability,"[3]; Stage 1, oral dosing up to 200 mg, compared with prior phase 1 IV data",about 0.1%
same,bioavailability,"[3]; human, plasma, oral, PD patients, estimated from pharmacokinetic behavior of intravenously administered squalamine in prior clinical studies",< 0.3%
same,solubility in water,Solubility in water; neutral pH,weakly soluble
same,dissolution in water,Solubility in water; pH<3.5 (the pH of gastric fluid),readily dissolves
same,formation of aggregates of αS,αS,inhibit the formation of aggregates of αS
same,formation of aggregates of αS,C. elegans model of PD,inhibit the formation of aggregates of αS
